Assay results taken from patent US5795890A, “Sulfonamide derivatives” (ONO Pharmaceutical Co., Ltd., priority 1995, dated 1998).
Counter-ions that a name gives are not always drawn.

Key:
[1] = target: T1, human polymorphonuclear elastase (HSE) (Homo sapiens, UniProt P08246); test: Inhibitory effects on human polymorphonuclear elastase; assay type: biochemical; conditions: substrate Meo-Suc-Ala-Ala-Pro-Val-pNA; HEPES pH 8.0; preincubation 37° C. 20 min, incubation 5 min
T1 sequence (P08246 30-267): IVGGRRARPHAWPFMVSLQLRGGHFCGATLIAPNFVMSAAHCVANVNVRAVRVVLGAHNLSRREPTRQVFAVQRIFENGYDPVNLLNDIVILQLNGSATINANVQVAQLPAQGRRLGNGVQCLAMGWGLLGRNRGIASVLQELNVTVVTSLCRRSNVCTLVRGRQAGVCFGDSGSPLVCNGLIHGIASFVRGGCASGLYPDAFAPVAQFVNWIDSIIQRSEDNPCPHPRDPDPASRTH
Procedure: (1) Inhibitory effects on human polymorphonuclear elastase
A mixture with 0.5 ml of 0.2 mM HEPES buffer (pH 8.0), 0.2 ml of 2.5M NaCl, 0.1 ml of 1% polyethyleneglycol 6000, 0.13 ml of distilled water, test compound dissolved in 0.01 ml of dimethylsulfoxide (DMSO) and 0.05 ml of 0.8 Unit/ml human polymorphonuclearelastase (HSE) was preincubated at 37° C. for 20 min. 5 mM of Meo-Suc-Ala-Ala-Pro-Val-pNA (DMSO solution, 0.01 ml) was then added to the above mixture and was incubated at 37° C. for 5 min. The reaction was terminated by 0.1 ml of 50% acetic acid and the p-nitroanilide (pNA) released was measured spectrophotometrically at […]. Percent inhibition of a compound was calculated by the following equation.
Inhibition (%)=1-{derlat OD(test-blank)/deltaOD(control-blank)}×100

[2] = test system: human polymorphonuclear elastase-induced lung hemorrhage; test: Inhibitory effects on human polymorphonuclear elastase-induced lung hemorrhage in hamster; assay type: in vivo, Syrian hamster; conditions: oral, 60 min before intratracheal HSE 10 U/0.1 ml, blood in BALF; for inhibition at 500 mg/kg (%): 5 Syrian hamsters per group; for ED50: Homo sapiens, Syrian hamsters
Procedure: (2) Inhibitory effects on human polymorphonuclear elastase-induced lung hemorrhage in hamster
A test compound suspended in 0.5% Carboxymethylcellulose or 80% Polyethyleneglycol, 400 or 2% Tween 80 was administered orally to a group of 5 Syrian hamsters. At 60 min after the administration, 10 U/0.1 ml of HSE was injected intratracheally via surgically exposed trachea under pentobarbital anesthesia (60 mg/kg, i.p.) to induce lung injury. At 60 min after the injection, hamsters were bled to sacrifice and subjected to bronchoalveolar lavage with 2.5 ml of saline and recovered lavage solution (BALF). The recovered BALF (0.5 ml) was diluted by 4 times with 2% aqueous solution sodium carbonate and sonicated for 10 sec. The lavage fluid was further diluted by 2.5 times with 2% aqueous solution sodium carbonate and the amount of blood in BALF was calculated from absorbance at 414 nm using standard curve.

| SMILES | IC50 [1] [µM] | inhibition at 500 mg/kg (%) [2] [%] | ED50 [2] [mg/kg] |
| --- | --- | --- | --- |
| CCC(C(=O)Oc1ccc(S(=O)(=O)n2c(C(=O)O)cc3cc(OC)c(OC)cc32)cc1C)c1ccc(N2CCCC2)cc1 (racemic) [2(42), 4-(2-carboxy-5,6-dimethoxyindol-1-ylsulfonyl)-2-methylphenyl 2RS-(4-(pyrrolidin-1-yl)phenyl)butanoic acid ester] | 0.013 | 67 |  |
| CCC(C(=O)Oc1ccc(S(=O)(=O)N2c3ccccc3CC2C(=O)O)cc1)c1ccccc1OC (racemic) [2(62), 4-(2RS-carboxyindolin-1-ylsulfonyl)phenyl 2RS-(2-methoxyphenyl)butanoic acid ester] | 0.0068 |  |  |
| CCC(C(=O)Oc1ccc(S(=O)(=O)Nc2ccccc2C(=O)NCC(=O)O)cc1)c1ccc(C)cc1 (racemic) [2(173), 4-(N-2-(N'-carboxymethylcarbamoyl)phenylsulfamoyl)phenyl 2RS-(4-methylphenyl)butanoic acid ester] | 0.014 |  |  |
| CCC(C(=O)Oc1ccc(S(=O)(=O)Nc2ccccc2C(=O)NCC(=O)O)cc1)c1ccc(N(C)C)cc1 (racemic) [2(197), 4-(N-2-(N'-carboxymethylcarbamoyl)phenylsulfamoyl)phenyl 2RS-(4-(N,N-dimethylamino)phenyl)butanoic acid ester.hydrochloride] | 0.01 |  |  |
| CCC(C(=O)Oc1ccc(S(=O)(=O)N2CCOCC2)cc1)c1ccc(N2CCCC2)cc1 (racemic) [Example 1(16), 4-(morpholin-4-ylsulfonyl)phenyl 2RS-(4-(pyrrolidin-1-yl)phenyl)butanoic acid ester] | 0.017 |  |  |
| CCOC(=O)C(CN1CCOCC1)NS(=O)(=O)c1ccc(OC(=O)C(CC)c2ccc(N3CCCC3)cc2)cc1 (racemic) [Example 1(40), 4-(N-1RS-(ethoxycarbonyl)-2-(morpholin-4-yl)ethylsulfamoyl)phenyl 2RS-(4-(pyrrolidin-1-yl)phenyl)butanoic acid ester] | 0.019 |  |  |
| CCC(C(=O)Oc1ccc(S(=O)(=O)NCC(N)=O)cc1)c1ccc(N2CCCC2)cc1 (racemic) [Example 1(56), 4-(N-(carbamoylmethyl)sulfamoyl)phenyl 2RS-(4-(pyrrolidin-1-yl)phenyl)butanoic acid ester] | 0.014 |  |  |
| CCC(C(=O)Oc1ccc(S(=O)(=O)NCC(O)CO)cc1C)c1ccc(C)cc1 (racemic) [Example 1(68), 4-(N-2RS,3-dihydroxypropylsulfamoyl)-2-methylphenyl 2RS-(4-methylphenyl)butanoic acid ester] |  | 51 |  |
| CCC(C(=O)Oc1ccc(S(=O)(=O)NCCc2ccccn2)cc1)c1ccc(N2CCCC2)cc1 (racemic) [Example 1(78), 4-(N-2-(pyridin-2-yl)ethylsulfamoyl)phenyl 2RS-(4-(pyrrolidin-1-yl)phenyl)butanoic acid ester.2hydrochloride] | 0.008 |  |  |
| CCC(C(=O)Oc1ccc(S(=O)(=O)NC2CN3CCC2CC3)cc1C)c1ccc(N2CCCC2)cc1 (racemic) [Example 1(90), 4-(N-(quinuclidin-3RS-yl)sulfamoyl)-2-methylphenyl 2RS-(4-(pyrrolidin-1-yl)phenyl)butanoic acid ester] |  | 65 |  |
| CCC(C(=O)Oc1ccc(S(=O)(=O)N2CSC[C@H]2C(=O)O)cc1)c1ccc(N2CCCC2)cc1 (stereo partly drawn) [2(77), 4-(4S-carboxyperhydrothiazol-3-ylsulfonyl)phenyl 2RS-(4-(pyrrolidin-1-yl)phenyl)butanoic acid ester.hydrochloride] | 0.018 |  |  |
| O=C(O)CNC(=O)c1ccccc1NS(=O)(=O)c1ccc(OC(=O)C2(c3ccc([N+](=O)[O-])cc3)CCC2)cc1 [2(179), 4-(N-2-(N'-carboxymethylcarbamoyl)phenylsulfamoyl)phenyl 1-(4-nitrophenyl)cyclobutanecarboxylic acid ester] | 0.049 |  |  |
| CC[C@H](C(=O)Oc1ccc(S(=O)(=O)NCCN2CCOCC2)cc1C)c1ccc(N2CCCC2)cc1 [Example 1(139), 4-(2-(morpholin-4-yl)ethylaminosulfonyl)-2-methylphenyl 2S-(4-(pyrrolidin-1-yl)phenyl)butanoic acid ester.2hydrochloride] | 0.024 |  | 192 |
| CCC(C(=O)Oc1ccc(S(=O)(=O)N2CCC[C@H]2C(=O)O)cc1)c1ccc(N2CCCC2)cc1 (stereo partly drawn) [Example 2(1), 4-(2S-carboxypyrrolidin-1-ylsulfonyl)phenyl 2RS-(4-(pyrrolidin-1-yl)phenyl)butanoic acid ester.hydrochloride] | 0.012 |  |  |

Further lines, with some results ahead:

| IC50 [1] [µM] | SMILES | inhibition at 500 mg/kg (%) [2] [%] | ED50 [2] [mg/kg] |
| --- | --- | --- | --- |
| 0.011 | CCC(C(=O)Oc1ccc(S(=O)(=O)n2c(C(=O)O)cc3ccccc32)cc1C)c1ccc(C)cc1 (racemic) [2(69), 4-(2-carboxyindol-1-ylsulfonyl)-2-methylphenyl 2RS-(4-methylphenyl)butanoicacid ester] | 83 |  |
| 0.0097 | CCC(C(=O)Oc1ccc(S(=O)(=O)NC23CC4CC(C2)CC(C(=O)O)(C4)C3)cc1)c1ccc(N2CCCC2)cc1 (racemic) [2(111), 4-(N-3-carboxyadamantan-1-ylsulfamoyl)phenyl 2RS-(4-(pyrrolidin-1-yl)phenyl)butanoic acid ester] |  |  |
| 0.023 | CCC(C(=O)Oc1ccc(S(=O)(=O)Nc2ccccc2C(=O)NCC(=O)O)cc1)c1ccc2c(c1)OCO2 (racemic) [2(120), 4-(N-2-(N'-carboxymethylcarbamoyl)phenylsulfamoyl)phenyl 2RS-(1,3-benzodioxol-5-yl)butanoic acid ester] |  |  |
| 0.008 | CCC(C(=O)Oc1ccc(S(=O)(=O)Nc2ccccc2C(=O)NCC(=O)O)cc1)c1ccc(OC)c(OC)c1 (racemic) [2(157), 4-(N-2-(N'-carboxymethylcarbamoyl)phenylsulfamoyl)phenyl 2RS-(3,4-dimethoxyphenyl)butanoic acid ester] |  |  |
| 0.022 | CC[C@H](C(=O)Oc1ccc(S(=O)(=O)N2CCc3cc([N+](=O)[O-])ccc32)cc1C)c1ccc(N2CCCC2)cc1 [Example 1(130), 4-(5-nitroindolin-1-ylsulfonyl)-2-methylphenyl 2S-(4-(pyrrolidin-1-yl)phenyl)butanoic acid ester] |  |  |
| 0.012 | CCc1cc(S(=O)(=O)N2CCNCC2)ccc1OC(=O)[C@@H](CC)c1ccc(N2CCCC2)cc1 [Example 2(274), 4-(piperazin-4-ylsulfonyl)-2-ethylphenyl 2S-(4-(pyrrolidin-1-yl)phenyl)butanoic acid ester.2hydrochloride] |  | 132 |
| 0.0093 | CC[C@H](C(=O)Oc1ccc(S(=O)(=O)N2CCNCC2)cc1C)c1ccc(N2CCCC2)cc1 [Example 2(276), 4-(piperazin-4-ylsulfonyl)-2-methylphenyl 2S-(4-(pyrrolidin-1-yl)phenyl)butanoic acid ester.2hydrochloride] |  | 73 |
| 0.055 | CCC(C(=O)Oc1ccc(S(=O)(=O)N2CCC[C@H]2C(=O)O)cc1C)c1ccc(N2CCCC2)cc1 (stereo partly drawn) [Example 2, 4-(2S-carboxypyrrolidin-1-ylsulfonyl)-2-methylphenyl 2RS-(4-(pyrrolidin-1-yl)phenyl)butanoic acid ester.hydrochloride] | 81 |  |
